In assay [1] the target is T1, Mrgprx2 (Homo sapiens, UniProt Q96LB1).
T1 construct: Tango fusion cassette; expressed in transfected cells; host or cells: HTLA cells
T1 sequence (Q96LB1 1-330): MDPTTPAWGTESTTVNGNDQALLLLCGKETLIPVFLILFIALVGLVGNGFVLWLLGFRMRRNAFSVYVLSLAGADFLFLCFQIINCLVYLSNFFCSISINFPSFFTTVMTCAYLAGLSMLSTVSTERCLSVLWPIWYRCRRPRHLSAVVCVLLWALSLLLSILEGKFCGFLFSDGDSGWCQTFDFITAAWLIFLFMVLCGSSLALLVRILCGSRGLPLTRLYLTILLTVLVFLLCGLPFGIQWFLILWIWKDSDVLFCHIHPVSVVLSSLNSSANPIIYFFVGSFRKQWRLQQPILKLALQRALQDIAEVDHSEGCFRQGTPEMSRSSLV
The assay is described as follows: PRESTO-Tango GPCR β-arrestin recruitment assay in Mrgprx2-transfected HTLA cells. It counts as cell-based. The protocol:
HTLA cells were maintained in DMEM supplemented with 10% FBS, 2 μg/mL puromycin and 100 μg/mL hygromycin B in a humidified atmosphere at 37° C. in 5% CO2. One million cells were seeded in 100 mm cell culture dish (Day 1). Cells were transfected with 4 μg Tango-MRGPRX2 construct using Lipofectamine 2000 reagent (Day 2). On day 3, cells were harvested and 20,000 cells per well were plated in 80 μL medium into poly-L-lysine coated and rinsed 96-well white cell culture plates (PerkinElmer). On day 4, GE1111 (final concentration […]) is added 1 hr prior to the agonists or antagonist in dose response manner (Compound 48/80, P17, P17*A4, P17*A7 and GE1111). On day 5, medium and drugs were removed from the wells slowly (aspiration) and […] luciferase substrate solution (500 mM DTT, 10 mM CoA, 100 mM ATP, 80 mg/mL luciferin and triton lysis buffer) were added to each well. After incubation for 10 min at room temperature, luminescence was counted in PerkinElmer Victor X4. RLU (relative luminescence units) results were exported into Excel sheets and GraphPad Prism 10 was used for analysis of data. To measure constitutive basal activity, no ligand was added on day 4.
On the technique in general: Arrestin recruitment assays detect the binding of arrestin to an activated receptor.

The test system of assay [2] is pERK 1/2 MAPK pathway and STIM1 in LAD2 mast cells. The assay is described as follows: Western blot of LAD2 mast cells treated with Mrgprx2 ligands (pERK1/2, STIM1). It counts as cell-based. The following applies: GE1111 25 μM added 30 min prior to agonists. How it is done: LAD2 cells were treated with agonists (1 μM Compound 48/80, P17, P17*A4, P17*A7 and 25 μM GE1111) for 15 min. For antagonist study, GE1111 (25 μM) were added 30 min prior to adding the agonists ([…] Compound 48/80, P17, P17*A4 and P17*A7). Cells were harvested and RIPA buffer containing cocktail mix of phosphatase and protease inhibitors was used to extract protein. Upon Bradford assay, harvested proteins were denatured with Lamelli buffer at 95° C. for 5 min. Protein samples were loaded in SDS-PAGE and transferred to nitrocellulose membrane. Membranes were blocked with 5% BSA for 1 hr and incubated at 4° C. overnight with primary antibodies (1:1000) in BSA (p44/42 MAPK (Erk1/2) (137F5) Rabbit mAb #4695, cell signalling, USA; Phospho-p44/42 MAPK (Erk1/2) (Thr202/Tyr204) (D13.14.4E) XP® Rabbit mAb #4370, Cell Signalling, USA; GAPDH (14C10) Rabbit mAb #2118, Cell signalling, USA; STIM1 Antibody #4916, Cell Signalling, USA) followed by (1:2000) HRP linked anti-rabbit secondary antibody (Anti-rabbit IgG, HRP-linked Antibody #7074) in 1 hr at room temperature. ECL was added and blots were visualized with Bio Rad CHEMIDOC™ MP imaging system.
In general terms: Immunoblotting shows a protein as a band on a membrane.

In assay [3] the test system is 4% DSS-induced colitis in C57BL/6N mice. The assay is described as follows: Survival study in 4% DSS-induced colitis. The following applies: WT mice, i.p. every alternative day. It counts as in vivo, mouse. The source says: (§1) C57BL/6N and Mrgprb2−/− adult mice (6-8 weeks old) were obtained from CMMR and housed in cages for acclimatation for a week. C57BL/6N and Mrgprb2−/− mice were divided into four groups (N=5-6) (2% DSS in drinking water and water control). Controls were fed with regular water and the treatment groups were exposed to 2% DSS for 5 days (Day 0 to Day 5) and regular water till Day 12. DSS-Colitis Grade (36,000-50,000 MW) (MP Biomedicals, Santa Ana, CA) was used in this study. During experiments, these mice were given anaesthesia to harvest blood and organs for other biochemical and histology analysis. For the survival study with Mrgprb2/x2 agonists, C57BL/6N mice were grouped into […] (N=10) and fed with 4% DSS for 5 days (Day 0 to 5) and replaced with regular drinking water for the rest of the experiment. Meanwhile, Mrgprb2/x2 ligands were given to the animals every alternative day via i.p. injection 100 μL with 10 μg/kg mice. For the treatment study with Mrgprb2/x2 ligands, C57BL/6N mice were divided into 7 groups (N=8 per group). Six groups were receiving 2.5% DSS dissolved in drinking water for 5 days (Day 0 to Day 5) and regular water till Day 12 and the control group was receiving water from Day 0 to Day 12. These 6 groups exposed to 2.5% DSS were treated with Mrgprb2/x2 ligands or saline for every alternative day till Day 12. […]

Assay [4] deals with 2.5% DSS-induced colitis in C57BL/6N mice. The assay is described as follows: Treatment study in 2.5% DSS-induced colitis, clinical parameters (DAI, colon, H&E). It counts as in vivo, mouse. Conditions: WT mice, 2.5% DSS Day 0 to 5, ligands every alternative day to Day 12; P17 and analogues 150 μg/kg, CST-14 15 μg/kg, GE1111 300 μg/kg.
Excerpt: as §1, with “mice.” for “mice. For the treatment study with Mrgprb2/x2 ligands, C57BL/6N mice were divided into 7 groups (N=8 per group). Six groups were receiving 2.5% DSS dissolved in drinking water for 5 days (Day 0 to Day 5) and regular water till Day 12 and the control group was receiving water from Day 0 to Day 12. These 6 groups exposed to 2.5% DSS were treated with Mrgprb2/x2 ligands or saline for every alternative day till Day 12.”
All animals were examined daily and the disease activity index (DAI) score was assessed as previously described by assessing stool consistency, presence of blood in stool and body weight change as summarised in Table 1. Percentage of body weight was calculated relative to the initial body weight at Day 0 [(Weight on a Day−Initial weight at Day 0/Initial weight at Day 0)×100].

The test system of assay [5] is Mrgpra1 and Mrgprb2 expression in colon. Briefly: qRT-PCR of mouse orthologs of Mrgprx2 in colon. It counts as in vivo. Conditions: WT mice, 2.5% DSS-induced colitis. The protocol:
To assess the gene expression profile in colon, distal colons were used to isolate total RNA using Trizol. Total RNA was precipitated for 30 min in […] with isopropanol and glycogen. The precipitated RNA was then washed with 75% ethanol and resuspended in RNase-free water for first strand cDNA synthesis following the protocol from HiScript® II Q RT SuperMix (Vazyme biotech co., ltd, China). cDNA harvested were quantified by quantitative PCR (7300 Real-Time PCR System, Applied Biosystems, Forster City, CA). The expression of genes was examined using ChamQ™ SYBR Color qPCR Master Mix as specified by the manufacturer protocol. All primer sequences are shown in Supplementary Table S1. […] method was employed for data analysis with the internal control, glyceraldehyde-3-phosphate dehydrogenase (gapdh).
For orientation: Real-time PCR tracks product formation cycle by cycle.

In assay [6] the test system is cytokine and chemokine releases in the blood. The assay is described as follows: Cytokine array analysis of blood plasma. It counts as in vivo, mouse. The following applies: mice exposed to 2.5% DSS, 40-target array. How it is done: The cytokine membranes were blocked with blocking buffer in room temperature for 1 hr. The blocking buffer was removed from the membranes and […] of plasma obtained from the treatment groups (WT+Water, WT+2% DSS, Mrgprb2−/−+Water and Mrgprb2−/−+2% DSS; Water+Saline, 2.5% DSS+Saline, 2.5% DSS+P17*A7 and 2.5% DSS+GE1111) diluted in blocking buffer (total volume 1 mL) were subjected to membrane containing array of antibodies anti-cytokines. The membranes were first incubated at 4 °C for 24 hr in the blocking buffer, following five washes with washing buffers (I and II) and then incubated with 1× biotin-conjugated anti-cytokines overnight at 4 °C. Membranes were washed again with washing buffers (I and II) 5 five times and incubated with 1×HRP-conjugated streptavidin for 2 hr at room temperature. Membranes were washed again, and 1 mL of detection buffer C and D were mixed and added to each membrane in dark for 2 min before imaging. Finally, array images were measured with ChemiDoc MP (Bio-Rad Laboratories, Hercules, CA). The detailed protocol can be referred to the instructions of a Cytokine Antibody Array Kit (ab133999—40 targets, Abcam).

In assay [7] the test system is M-CSF, BLC, G-CSF and sTNF RI in blood plasma. The assay is described as follows: ELISA of cytokines in blood plasma. The assay is classed as in vivo, mouse. Conditions: mice exposed to 2.5% DSS. How it is done: Concentrations of cytokines in blood plasma of the treatment groups (WT+Water, WT+2% DSS, Mrgprb2−/−+Water, Mrgprb2−/−+2% DSS, Water+Saline, 2.5% DSS+Saline, 2.5% DSS+P17, 2.5% DSS+P17*A4, 2.5% DSS+P17*A7, 2.5% DSS+CST-14 and 2.5% DSS+GE1111) were determined using ELISA kits (M-CSF-ab199084, Abcam; LIX—ab264611, Abcam; sTNF RI—ab202408, Abcam; G-CSF—ab197743, Abcam; BLC-EMCXCL13, Thermofisher) according to the manufacturer's protocol. Optical densities of the samples and standards were measured using PerkinElmer Victor X4. Cytokine concentrations were determined by comparing the optical density from the standard curve of each cytokine standards.

In assay [8] the test system is DSS-induced colitis in mice models. The following applies: recent studies [41]-[44]; cited from earlier work.

“Also recorded” adds a separate entry of the source.

`COC(=O)c1cc2cc(NC(N)=O)ccc2cc1-c1cc2c3c(c(O)ccc3c1)C(C)C(C=O)=C2` (stereo not shown) [GE1111]: in assay [1] (GE1111 (final concentration 10 PM) added 1 hr prior to the agonists), the “effect on agonist-induced β-arrestin recruitment” value is listed as “antagonized the agonist activity”. For the same compound, the “GE1111 dose response on Mrgprx2 (no agonist)” value in assay [1] (Mrgprx2-transfected HTLA cells, GE1111 alone) was “behaved as an inverse agonist”. Also, the “effect on agonist-induced pERK1/2 / STIM1 pathway” value in assay [2] is “antagonized this pathway”. Further, the survival of mice result in assay [3] was “increased the survival rate; also recorded: mimicked the effect of the agonist on mice survival”. For the same compound, in assay [4], the “severity of DSS-induced colitis” value was “reduced the severity of DSS-induced colitis”. Besides, the “expression of Mrgpra1 and Mrgprb2 in colon” value in assay [5] is “restored their expression to the levels of healthy mice”. Also, the “cytokine and chemokine levels in the blood plasma (array)” value in assay [6] is “significant modifications in most of the cytokine and chemokine levels”. Further, the “M-CSF, BLC and G-CSF levels in blood plasma” value in assay [7] is on record as “significant reduction in these cytokine levels”.

In the case of `O=c1c(O)c(-c2ccc(O)c(O)c2)oc2cc(O)cc(O)c12` [quercetin], the DSS-induced colitis symptoms result in assay [8] is given as “ameliorate DSS-induced colitis symptoms”.

For “cortistatin 14 [CST-14, reference compound]”, the survival of mice result in assay [3] is recorded as “increased the survival rate”. For the same compound, the “severity of DSS-induced colitis” value in assay [4] is reported as “reduced the severity of DSS-induced colitis”. Also, in assay [8], the DSS-induced colitis symptoms result is listed as “ameliorate DSS-induced colitis symptoms”.

For the compound protegrin, the DSS-induced colitis symptoms entry in assay [8] was “ameliorate DSS-induced colitis symptoms”.

The values above are taken from patent US20250352506A1, “MRGPRB2/X2, AGONIST AND ANTAGONIST AND METHODS THEREOF” (THE UNIVERSITY OF HONG KONG, priority 2024, published 2025).
